One assay addresses T1, MAP3K2 (Homo sapiens, UniProt Q9Y2U5).
T1 sequence (Q9Y2U5 1-619): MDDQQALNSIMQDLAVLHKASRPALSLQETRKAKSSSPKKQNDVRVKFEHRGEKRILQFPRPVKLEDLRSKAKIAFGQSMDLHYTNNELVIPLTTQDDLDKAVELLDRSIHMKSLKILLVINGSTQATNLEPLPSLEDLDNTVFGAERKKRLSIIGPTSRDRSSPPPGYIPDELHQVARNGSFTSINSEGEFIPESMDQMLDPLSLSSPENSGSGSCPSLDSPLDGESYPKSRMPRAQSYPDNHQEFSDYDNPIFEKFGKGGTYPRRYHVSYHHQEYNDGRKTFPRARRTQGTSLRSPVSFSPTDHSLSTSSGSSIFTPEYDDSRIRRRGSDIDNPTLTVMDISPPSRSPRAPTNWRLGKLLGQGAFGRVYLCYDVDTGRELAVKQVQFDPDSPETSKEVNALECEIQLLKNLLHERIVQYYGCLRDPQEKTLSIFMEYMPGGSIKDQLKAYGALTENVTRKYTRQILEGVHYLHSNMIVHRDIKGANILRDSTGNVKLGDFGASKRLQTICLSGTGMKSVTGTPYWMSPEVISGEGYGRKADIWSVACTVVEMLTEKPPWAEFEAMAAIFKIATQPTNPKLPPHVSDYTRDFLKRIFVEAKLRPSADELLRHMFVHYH
Kind of assay: Kinobeads competition binding, HL60 cell lysate. More on the design: endogenous in cells; host or cells: HL60 cell lysate. To be noted: 10 μM free compound. How it is done: To one aliquot of cell lysate 10 μM of the free compound (FIG. 3, CZC31326) was added and allowed to bind to proteins in the lysate. Then the affinity matrix with the immobilized compound (Example 1) was added to capture proteins that were not interacting with the previously added free compound. Beads were separated from the lysate and bead bound proteins were eluted in SDS sample buffer and subsequently separated by SDS-Polyacrylamide gel electrophoresis (FIG. 4). Suitable gel bands were cut out and subjected to in-gel proteolytic digestion with trypsin. The second lysate aliquot was processed identically, however no free compound was added (DMSO solvent control). Peptides originating from samples 1 and 2 were labeled with iTRAQ reagents (iTRAQ 114 and iTRAQ 117) and the combined samples were analyzed with a nano-flow liquid chromatography system coupled online to a tandem mass spectrometer (LC-MS/MS) experiment followed by iTRAQ reporter ion quantification in the MS/MS spectra (Ross et al., 2004. Mol. Cell. Proteomics 3(12):1154-1169). Further experimental protocols can be found in WO2006/134056 and a previous publication (Bantscheff et al., 2007. Nature Biotechnology 25, 1035-1044). Sepharose-beads with the immobilized compound (100 μl beads per pull-down experiment) were equilibrated in lysis buffer and incubated with a cell lysate sample containing 50 mg of protein on an end-over-end shaker (Roto Shake Genie, Scientific Industries Inc.) for 2 hours at 4° C. […] The iTRAQ reagents are a set of multiplexed, amine-specific, stable isotope reagents that can label peptides on amino groups in up to four different biological samples enabling simultaneous identification and quantitation of peptides. […] Relative protein quantitation was performed using peak areas of iTRAQ reporter ion signals essentially as described in an earlier publication (Bantscheff et al., 2007. Nature Biotechnology 25, 1035-1044).

The target in another assay is JNK1 (Homo sapiens, UniProt P45983). Kind of assay: Kinobeads competition binding, HeLa Placenta lysate mix. The arrangement: Identified kinases from HeLa Placenta lysate mix with CZC31326; endogenous in cells; host or cells: HeLa cell lysate mixed with placenta tissue lysate. To be noted: 10 μM free compound. The procedure:
To one aliquot of cell lysate 10 μM of the free compound (FIG. 3, CZC31326) was added and allowed to bind to proteins in the lysate. Then the affinity matrix with the immobilized compound was added to capture proteins that were not interacting with the previously added free compound. Beads were separated from the lysate and bead bound proteins were eluted in SDS sample buffer and subsequently separated by SDS-Polyacrylamide gel electrophoresis (FIG. 10). Suitable gel bands were cut out and subjected to in-gel proteolytic digestion with trypsin. The second lysate aliquot was processed identically, however no free compound was added (DMSO solvent control). Peptides originating from samples 1 and 2 were labeled with iTRAQ reagents (iTRAQ 114 and iTRAQ 117) and the combined samples were analyzed with a nano-flow liquid chromatography system coupled online to a tandem mass spectrometer (LC-MS/MS) experiment followed by iTRAQ reporter ion quantification in the MS/MS spectra as described in Example 2.

Sequence of JNK1 (P45983 whole entry): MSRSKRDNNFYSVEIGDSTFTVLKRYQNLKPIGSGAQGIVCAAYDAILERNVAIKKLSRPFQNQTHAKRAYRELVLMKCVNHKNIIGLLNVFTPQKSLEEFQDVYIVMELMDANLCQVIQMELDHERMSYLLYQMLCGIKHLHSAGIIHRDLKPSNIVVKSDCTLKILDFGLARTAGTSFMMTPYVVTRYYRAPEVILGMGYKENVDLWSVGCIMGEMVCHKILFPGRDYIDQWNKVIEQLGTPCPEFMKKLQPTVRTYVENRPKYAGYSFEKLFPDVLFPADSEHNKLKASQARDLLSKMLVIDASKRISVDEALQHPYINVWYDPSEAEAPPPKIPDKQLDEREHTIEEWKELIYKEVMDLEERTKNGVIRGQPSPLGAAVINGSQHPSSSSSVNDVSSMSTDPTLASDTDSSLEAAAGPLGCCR

`CS(=O)(=O)Nc1ccccc1Nc1nc(Nc2cccc(OCCN)c2)ncc1Cl` [CZC31326, N-(2-(2-(3-(2-aminoethoxy)phenylamino)-5-chloropyrimidin-4-ylamino)phenyl)methanesulfonamide]: the inhibition (usually the drop in the measured response relative to a control, in per cent) at 10 µM on MAP3K2 came out at 96.3%. In addition, the Competition % at JNK1 was determined as 85%.

These data come from patent publication US20120270237A9, “METHODS FOR THE IDENTIFICATION OF KINASE INTERACTING MOLECULES AND FOR THE PURIFICATION OF KINASE PROTEINS” (Cellzone AG, priority 2009, published 2012).
